# Experimental data: PubChem BioAssay (NCI)
#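 Abbreviation: GI50, concentration required for 50% inhibition of growth. Definition used: TGI = concentration required for complete inhibition of growth.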
# What was measured:
# Assay in all cases: NCI tumour cell line growth inhibition, 384-well format
# [1] = system: SNB-75 CNS
# [2] = system: 786-0 renal
# [3] = system: HOP-62 NSCLC
# [4] = system: COLO 205 colon
# [5] = system: HL-60(TB) leukemia
# [6] = system: TK-10 renal
# [7] = system: MOLT-4 leukemia
# [8] = system: SNB-19 CNS
# [9] = system: NCI-H522 lung
# [10] = system: DU-145 prostate
# [11] = system: SK-MEL-28 melanoma
# [12] = system: CAKI-1 renal
# [13] = system: PC-3 prostate
# [14] = system: SF-539 CNS
# [15] = system: KM12 colon
# [16] = system: OVCAR-4 ovarian
# [17] = system: NCI-H226 lung
# [18] = system: MCF7 breast
# [19] = system: UACC-62 melanoma
# [20] = system: MDA-MB-468 breast
# [21] = system: MDA-MB-435 melanoma
# [22] = system: HOP-92 NSCLC
# [23] = system: T-47D breast
# [24] = system: NCI/ADR-RES ovarian
# [25] = system: SR leukemia
# [26] = system: EKVX NSCLC
# [27] = system: CCRF-CEM leukemia
# [28] = system: HT29 colon
# [29] = system: LOX IMVI melanoma
# [30] = system: HCC-2998 colon
# [31] = system: NCI-H460 NSCLC
# [32] = system: A549 NSCLC
# [33] = system: OVCAR-8 ovarian
# [34] = system: SF-268 CNS
# [35] = system: NCI-H322M lung
# [36] = system: IGROV1 ovarian
# [37] = system: HCT-15 colon
# [38] = system: HCT-116 colon
# [39] = system: UO-31 renal
# [40] = system: UACC-257 melanoma
# [41] = system: SW-620 colon
# [42] = system: K-562 leukemia
# [43] = system: HS 578T breast
# [44] = system: RXF 393 renal
# [45] = system: U251 glioblastoma
# [46] = system: OVCAR-3 ovarian
# [47] = system: MDA-MB-231 breast
smiles,measurement,setting,value
C[C@]12CCCN1CC1=NNC(=O)c3cc(F)cc4[nH]c2c1c34,GI50,[1],23.3 µM
same,TGI,[1],> 67.2 µM
same,GI50,[2],29 µM
same,TGI,[2],> 80.9 µM
same,GI50,[3],10.9 µM
same,TGI,[3],45.6 µM
same,GI50,[4],17.8 µM
same,TGI,[4],45.1 µM
same,GI50,[5],15.6 µM
same,TGI,[5],29.1 µM
same,GI50,[6],24.1 µM
same,TGI,[6],73.9 µM
same,GI50,[7],2.48 µM
same,TGI,[7],10.5 µM
same,GI50,[8],35.2 µM
same,TGI,[8],97.7 µM
same,GI50,[9],16.8 µM
same,TGI,[9],44.6 µM
same,GI50,[10],27.9 µM
same,TGI,[10],80 µM
same,GI50,[11],26.1 µM
same,TGI,[11],81.3 µM
same,GI50,[12],18.1 µM
same,TGI,[12],69.4 µM
same,GI50,[13],20 µM
same,TGI,[13],> 80.7 µM
same,GI50,[14],14.2 µM
same,TGI,[14],33.9 µM
same,GI50,[15],13.2 µM
same,TGI,[15],42.3 µM
same,GI50,[16],26.5 µM
same,TGI,[16],79.4 µM
same,GI50,[17],14.8 µM
same,TGI,[17],50.2 µM
same,GI50,[18],19.4 µM
same,TGI,[18],71.1 µM
same,GI50,[19],11.7 µM
same,TGI,[19],28.1 µM
same,GI50,[20],3.57 µM
same,TGI,[20],18.8 µM
same,GI50,[21],42.4 µM
same,TGI,[21],> 100 µM
same,GI50,[22],18.4 µM
same,TGI,[22],> 60.9 µM
same,GI50,[23],31.7 µM
same,TGI,[23],> 86.3 µM
same,GI50,[24],20.9 µM
same,TGI,[24],75 µM
same,GI50,[25],1.27 µM
same,TGI,[25],2.58 µM
same,GI50,[26],20.2 µM
same,TGI,[26],51.6 µM
same,GI50,[27],14.4 µM
same,TGI,[27],27.8 µM
same,GI50,[28],22.8 µM
same,TGI,[28],74.7 µM
same,GI50,[29],16.3 µM
same,TGI,[29],60.4 µM
same,GI50,[30],9.2 µM
same,TGI,[30],27.5 µM
same,GI50,[31],4.64 µM
same,TGI,[31],20.6 µM
same,GI50,[32],29.1 µM
same,TGI,[32],> 100 µM
same,GI50,[33],13 µM
same,TGI,[33],35.7 µM
same,GI50,[34],14.5 µM
same,TGI,[34],31.6 µM
same,GI50,[35],23.4 µM
same,TGI,[35],52.5 µM
same,GI50,[36],21.7 µM
same,TGI,[36],> 89.6 µM
same,GI50,[37],32 µM
same,TGI,[37],> 95.3 µM
same,GI50,[38],9 µM
same,TGI,[38],43.3 µM
same,GI50,[39],27.5 µM
same,TGI,[39],96.1 µM
same,GI50,[40],37.2 µM
same,TGI,[40],> 92.2 µM
same,GI50,[41],7.57 µM
same,TGI,[41],> 39.2 µM
same,GI50,[42],38.6 µM
same,TGI,[42],> 100 µM
same,GI50,[43],13.6 µM
same,TGI,[43],30.1 µM
same,GI50,[44],12.8 µM
same,TGI,[44],30.9 µM
same,GI50,[45],13.6 µM
same,TGI,[45],> 79.2 µM
same,GI50,[46],14 µM
same,TGI,[46],39.9 µM
same,GI50,[47],13.6 µM
same,TGI,[47],60.1 µM
